Assay results reported in paper PMC9270327 (Communications Biology, 2022).
Where two headings read alike, the source gives them in different places.

Experiments:
[1] = test system: lentiviral pseudoparticles carrying SARS-CoV-2 Alpha (B.1.1.7) spike, Caco-2 cells; format: cell-based; settings: for SARS-CoV-2 spike driven entry, Mean (0 nM = 100): Fig. 5b
TMPRSS2 [2] = molecular target: T1, TMPRSS2 (Homo sapiens, UniProt O15393); assay: Plasma stability: residual TMPRSS2 inhibition after incubation in human plasma
T1 sequence (O15393 whole entry): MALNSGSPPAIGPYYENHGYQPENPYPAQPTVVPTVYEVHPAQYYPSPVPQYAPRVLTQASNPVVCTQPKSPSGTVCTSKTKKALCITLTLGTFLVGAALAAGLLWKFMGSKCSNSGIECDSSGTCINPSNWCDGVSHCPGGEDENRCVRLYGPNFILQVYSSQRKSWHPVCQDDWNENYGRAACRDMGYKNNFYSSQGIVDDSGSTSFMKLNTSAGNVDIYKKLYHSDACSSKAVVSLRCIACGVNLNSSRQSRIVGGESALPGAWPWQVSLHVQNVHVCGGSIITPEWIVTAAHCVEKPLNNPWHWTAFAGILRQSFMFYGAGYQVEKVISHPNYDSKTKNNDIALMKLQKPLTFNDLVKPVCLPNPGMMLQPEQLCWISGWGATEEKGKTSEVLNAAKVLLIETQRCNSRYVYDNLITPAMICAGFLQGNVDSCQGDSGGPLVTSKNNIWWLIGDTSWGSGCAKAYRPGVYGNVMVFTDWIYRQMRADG
Description: The activity of the compounds against the recombinant human enzymes was determined in enzyme inhibition assays. […] The measurements were performed on a Tecan infinite® M1000 and the fluorescence intensity was measured by exciting the AMC fluorophore at 380 nm wavelength and recording emission at 460 nm wavelength. […] Fluorescence intensities and absorption were measured every 2 min for 2 h or as endpoint after 2 h. […] To determine the IC50 values, the concentration-response data were plotted with the program GraphPad prism version 8.4.2 (San Diego, California) and a nonlinear regression fit with the equation [Inhibitor] vs. normalized response was applied. The inhibitory constant Ki was calculated from the IC50 values using the Cheng–Prusoff equation (Ki = IC50/[S]/KM) for competitive reversible inhibitors[66].
The stability of the inhibitors was measured according to a modified procedure from ref. [67]. […] At indicated timepoints, 100 µL samples were taken and mixed with 200 µL of ethanol to precipitate proteins. […] The supernatant was aspirated and analyzed using analytical HPLC. The residual inhibitory constants Ki after incubation was assessed by mixing serial dilutions of the inhibitor with recombinant TMPRSS2 as described above.
Shown are the means ± SD of n=1 experiment performed in triplicates.

[3] = test system: lentiviral pseudoparticles carrying SARS-CoV-2 Beta (B.1.351) spike, Caco-2 cells; format: cell-based; settings: for SARS-CoV-2 spike driven entry, Mean (0 nM = 100): Fig. 5c
TMPRSS2 [4] = molecular target: T1, TMPRSS2; format: biochemical; design: purchased Creative BioMart (New York, USA) or LSBio (Seattle, USA); settings: normalized, 0 nM = 100
Description: Recombinant human TMPRSS2 was purchased from Creative BioMart (New York, USA) or LSBio (Seattle, USA), factor Xa was obtained from Bio-Techne GmbH (Wiesbaden, Germany). Recombinant human thrombin and matriptase protein were purchased from R&D Systems (Minneapolis, MN, USA).

Which results are given for ace-Arg-Pro-Arg-kbt [Compound 2]?
IC50 ([1]; Caco-2 cells, luciferase 2 days post transduction, read-out: IC50 pseudotyped lentivirus Alpha): 0.391 µM; SARS-CoV-2 spike driven entry, Mean (0 nM = 100) ([1]; compound 3.2 nM): 80.3695; SARS-CoV-2 spike driven entry, Mean (0 nM = 100) ([1]; compound 16 nM): 86.8245; SARS-CoV-2 spike driven entry, Mean (0 nM = 100) ([1]; compound 80 nM): 66.7955; SARS-CoV-2 spike driven entry, Mean (0 nM = 100) ([1]; compound 400 nM): 63.0945; SARS-CoV-2 spike driven entry, Mean (0 nM = 100) ([1]; compound 2000 nM): 24.7885; SARS-CoV-2 spike driven entry, Mean (0 nM = 100) ([1]; compound 10000 nM): 4.5995; SARS-CoV-2 spike driven entry, Mean (0 nM = 100) ([1]; compound 50000 nM): 0.953; TMPRSS2 activity, Mean (0 nM = 100) (TMPRSS2 [2]; inhibitor 0.0167 nM, 0 min in plasma): 108.191; TMPRSS2 activity, Mean (0 nM = 100) (TMPRSS2 [2]; inhibitor 0.0167 nM, 30 min in plasma): 105.387; TMPRSS2 activity, Mean (0 nM = 100) (TMPRSS2 [2]; inhibitor 0.0167 nM, 60 min in plasma): 97.3483; TMPRSS2 activity, Mean (0 nM = 100) (TMPRSS2 [2]; inhibitor 0.0167 nM, 120 min in plasma): 100.611; TMPRSS2 activity, Mean (0 nM = 100) (TMPRSS2 [2]; inhibitor 0.0167 nM, 24 h in plasma): 95.898; TMPRSS2 activity, Mean (0 nM = 100) (TMPRSS2 [2]; inhibitor 0.0167 nM, 10 d in plasma): 98.4437; TMPRSS2 activity, Mean (0 nM = 100) (TMPRSS2 [2]; inhibitor 0.0167 nM, positive ctrl): 103.005; TMPRSS2 activity, Mean (0 nM = 100) (TMPRSS2 [2]; inhibitor 0.167 nM, 0 min in plasma): 105.131; TMPRSS2 activity, Mean (0 nM = 100) (TMPRSS2 [2]; inhibitor 0.167 nM, 30 min in plasma): 104.481; TMPRSS2 activity, Mean (0 nM = 100) (TMPRSS2 [2]; inhibitor 0.167 nM, 60 min in plasma): 96.8072; TMPRSS2 activity, Mean (0 nM = 100) (TMPRSS2 [2]; inhibitor 0.167 nM, 120 min in plasma): 98.0518; TMPRSS2 activity, Mean (0 nM = 100) (TMPRSS2 [2]; inhibitor 0.167 nM, 24 h in plasma): 93.482; TMPRSS2 activity, Mean (0 nM = 100) (TMPRSS2 [2]; inhibitor 0.167 nM, 10 d in plasma): 101.036; TMPRSS2 activity, Mean (0 nM = 100) (TMPRSS2 [2]; inhibitor 0.167 nM, positive ctrl): 100.219; TMPRSS2 activity, Mean (0 nM = 100) (TMPRSS2 [2]; inhibitor 1.665 nM, 0 min in plasma): 102.769; TMPRSS2 activity, Mean (0 nM = 100) (TMPRSS2 [2]; inhibitor 1.665 nM, 30 min in plasma): 100.449; TMPRSS2 activity, Mean (0 nM = 100) (TMPRSS2 [2]; inhibitor 1.665 nM, 60 min in plasma): 96.1849; TMPRSS2 activity, Mean (0 nM = 100) (TMPRSS2 [2]; inhibitor 1.665 nM, 120 min in plasma): 100.213; TMPRSS2 activity, Mean (0 nM = 100) (TMPRSS2 [2]; inhibitor 1.665 nM, 24 h in plasma): 98.9115; TMPRSS2 activity, Mean (0 nM = 100) (TMPRSS2 [2]; inhibitor 1.665 nM, 10 d in plasma): 97.0442; TMPRSS2 activity, Mean (0 nM = 100) (TMPRSS2 [2]; inhibitor 1.665 nM, positive ctrl): 88.8492; TMPRSS2 activity, Mean (0 nM = 100) (TMPRSS2 [2]; inhibitor 16.65 nM, 0 min in plasma): 86.0968; TMPRSS2 activity, Mean (0 nM = 100) (TMPRSS2 [2]; inhibitor 16.65 nM, 30 min in plasma): 100.379; TMPRSS2 activity, Mean (0 nM = 100) (TMPRSS2 [2]; inhibitor 16.65 nM, 60 min in plasma): 78.8625; TMPRSS2 activity, Mean (0 nM = 100) (TMPRSS2 [2]; inhibitor 16.65 nM, 120 min in plasma): 82.8569; TMPRSS2 activity, Mean (0 nM = 100) (TMPRSS2 [2]; inhibitor 16.65 nM, 24 h in plasma): 83.5789; TMPRSS2 activity, Mean (0 nM = 100) (TMPRSS2 [2]; inhibitor 16.65 nM, 10 d in plasma): 88.0057; TMPRSS2 activity, Mean (0 nM = 100) (TMPRSS2 [2]; inhibitor 16.65 nM, positive ctrl): 53.0338; TMPRSS2 activity, Mean (0 nM = 100) (TMPRSS2 [2]; inhibitor 166.5 nM, 0 min in plasma): 23.84; TMPRSS2 activity, Mean (0 nM = 100) (TMPRSS2 [2]; inhibitor 166.5 nM, 30 min in plasma): 25.2709; TMPRSS2 activity, Mean (0 nM = 100) (TMPRSS2 [2]; inhibitor 166.5 nM, 60 min in plasma): 26.798; TMPRSS2 activity, Mean (0 nM = 100) (TMPRSS2 [2]; inhibitor 166.5 nM, 120 min in plasma): 22.618; TMPRSS2 activity, Mean (0 nM = 100) (TMPRSS2 [2]; inhibitor 166.5 nM, 24 h in plasma): 21.6315; TMPRSS2 activity, Mean (0 nM = 100) (TMPRSS2 [2]; inhibitor 166.5 nM, 10 d in plasma): 39.6688; TMPRSS2 activity, Mean (0 nM = 100) (TMPRSS2 [2]; inhibitor 166.5 nM, positive ctrl): 13.9877; TMPRSS2 activity, Mean (0 nM = 100) (TMPRSS2 [2]; inhibitor 1665 nM, 0 min in plasma): 0.5738; TMPRSS2 activity, Mean (0 nM = 100) (TMPRSS2 [2]; inhibitor 1665 nM, 30 min in plasma): 7.5387; TMPRSS2 activity, Mean (0 nM = 100) (TMPRSS2 [2]; inhibitor 1665 nM, 60 min in plasma): 0.2056; TMPRSS2 activity, Mean (0 nM = 100) (TMPRSS2 [2]; inhibitor 1665 nM, 120 min in plasma): 7.6223; TMPRSS2 activity, Mean (0 nM = 100) (TMPRSS2 [2]; inhibitor 1665 nM, 24 h in plasma): 2.774; TMPRSS2 activity, Mean (0 nM = 100) (TMPRSS2 [2]; inhibitor 1665 nM, 10 d in plasma): 10.1282; TMPRSS2 activity, Mean (0 nM = 100) (TMPRSS2 [2]; inhibitor 1665 nM, positive ctrl): 12.6313; IC50 ([3]; Caco-2 cells, luciferase 2 days post transduction, read-out: IC50 pseudotyped lentivirus Beta): 0.434 µM; SARS-CoV-2 spike driven entry, Mean (0 nM = 100) ([3]; compound 3.2 nM): 86.789; SARS-CoV-2 spike driven entry, Mean (0 nM = 100) ([3]; compound 16 nM): 76.3745; SARS-CoV-2 spike driven entry, Mean (0 nM = 100) ([3]; compound 80 nM): 81.347; SARS-CoV-2 spike driven entry, Mean (0 nM = 100) ([3]; compound 400 nM): 58.1085; SARS-CoV-2 spike driven entry, Mean (0 nM = 100) ([3]; compound 2000 nM): 24.7225; SARS-CoV-2 spike driven entry, Mean (0 nM = 100) ([3]; compound 10000 nM): 3.543; SARS-CoV-2 spike driven entry, Mean (0 nM = 100) ([3]; compound 50000 nM): 0.923; TMPRSS2 activity, Mean (Fig. 2a) (TMPRSS2 [4]; 0.05 nM): 92; TMPRSS2 activity, Mean (Fig. 2a) (TMPRSS2 [4]; 0.5 nM): 90.3158; TMPRSS2 activity, Mean (Fig. 2a) (TMPRSS2 [4]; 5 nM): 62.9474; TMPRSS2 activity, Mean (Fig. 2a) (TMPRSS2 [4]; 50 nM): 19.7895; TMPRSS2 activity, Mean (Fig. 2a) (TMPRSS2 [4]; 500 nM): 3.789; TMPRSS2 activity, Mean (Fig. 2a) (TMPRSS2 [4]; 5000 nM): 0.6316; TMPRSS2 activity, Mean (Fig. 2a) (TMPRSS2 [4]; 50000 nM): 0.4211; TMPRSS2 activity, Mean (Fig. 2a) (TMPRSS2 [4]; 500000 nM): -1.895
